# Experimental data taken from US20160366886A1, “BIOCIDAL COMPOSITION, PREPARATION AND METHODS OF USE THEREOF” (BROMINE COMPOUNDS LTD., priority 2014, published 2016).
# Assays:
# [1] = system: Pseudomonas aeruginosa (ATCC 15442); assay: Biocidal activity against simulated biofilm (bacteria entrapped in alginate gel beads), surviving CFU; type: cell-based; conditions: for time of total kill: alginate beads, pH 7
# Description: A biofilm simulation system developed by the Biofilm Bozeman Institute Montana (Grobe K. J., Zahler J., and Stewart P. S., 2002 in “Role of dose concentration in biocide efficacy against Pseudomonas aeruginosa Biofilms”, J. Industrial Microbiology & Biotechnology, vol. 29, pp 10-15), was used in this experiment to evaluate the efficacy of biocidal solutions against biofilm.
# The biofilm simulation was created by entrapping bacteria in alginate gel beads. A plate of R2A agar was streaked with Pseudomonas aeruginosa (ATCC 15442) and incubated at 35° C. overnight. Buffer phosphate at pH 7.2 was used to scrap off the bacteria from the agar plate and to create a suspension. The bacterial suspension was mixed with an equal volume of an aqueous 4% sodium alginate solution, to make a final 2% alginate solution. The alginate and bacterial slurry were placed in a 50 ml syringe attached to a 22 gauge needle, connected to a compressed air tank, allowing the syringe to be pressurized. At 20 psig pressure a stream of small drops was forced out and dropped into a stirred solution of 50 mM CaCl2. The Ca^+2 cross linked the alginate, and semi solid beads with entrapped bacterial cells were formed. The beads were allowed to stir in the CaCl2 solution for about 20 minutes, and then rinsed in a dilute 5 mM CaCl2 solution. Several flasks containing 100 beads each were incubated overnight at 35° C. on a rotating shaker in a buffer solution (at pH 7) with 5 mM addition of CaCl2 to maintain the beads structure. The resulting beads diameter is about 2 mm
# At the beginning of the experiment, the supernatant of the beads buffer suspension containing 5 mM CaCl2 was decanted and replaced by the 100 ml biocide solution with the required concentration (between 0.5, 1, 2.5 and 5 ppm as total Cl2).
# After different interval contact times, 10 beads were removed and placed in a 5 g/l sodium thiosulfate solution containing 50 mM sodium citrate. The sodium citrate was used to dissolve the alginate gel and release the bacteria into the solution. The neutralizer-citrate solution was placed in the refrigerator for 2 hours, than diluted and placed on R2A agar plates using pour plate technique. The plates were incubated at 35° C. for 24-48 hours and counted. The efficacy and toxicity of the neutralizer were checked as well as a control experiment without biocide addition. Four concentrations (0.5, 1, 2.5 and 5 ppm) were tested at four different contact times (5, 15, 30, and 60 min) FIGS. 1-10 describe the surviving colony forming units (CFU) of the bacteria after the biocide treatment at different contact times.
# [2] = Stability of the aqueous biocide solution (total active chlorine as Cl2 over time); type: physicochemical
# Description: The concentration of the active chlorine is based on the measurement of total chlorine (as Cl2). The term “as Cl2” refers to the measurement of the active chlorine as total chlorine.
# [3] = 1 ppm dose, contact time not stated
SMILES,effect on the microbe concentration ([1]; 0.5 ppm dose),"log reduction of microbe concentration [1, 3] [log]","log reduction of microbe concentration ([1]; 2.5 ppm dose, after 60 min)","log reduction of microbe concentration ([1]; 2.5 ppm dose, contact time not stated) [log]",time of total kill ([1]; 5 ppm dose (as total Cl2)) [min],effect on the microbe concentration ([1]; 1 ppm dose),time of total kill ([1]; 2.5 ppm dose (as total Cl2)) [min],active chlorine reading (as Cl2) ([2]; after 20.3 hrs) [ppm],"active chlorine remaining, percent of initial ([2]; after 20.3 hrs) [%]",active chlorine reading (as Cl2) ([2]; after 44.4 hrs) [ppm],"active chlorine remaining, percent of initial ([2]; after 44.4 hrs) [%]",time the solution / active Cl2 level stayed stable (unchanged) ([2]; aqueous solution about 500 ppm as Cl2) [h],"total active Cl2 found after mixing ([2]; freshly mixed solution, expected 500 ppm as Cl2) [ppm]","log reduction of microbe concentration ([1]; 0.5 ppm dose, contact time not stated) [log]"
[Na+].[O-]Cl [NaOCl],no effect was observed at all,1,1 log,1,60,–,–,–,–,–,–,–,–,–
"O=c1n(Cl)c(=O)n(Cl)c(=O)n1Cl [TCCA, trichloroisocyanuric acid]",almost no activity,1,–,–,30,almost no activity,60,–,–,–,–,–,–,–
"O=c1nc([O-])n(Cl)c(=O)n1Cl.[Na+] [NaDCC, sodium dichloroisocyanurate]",almost no activity,1,more than 4 log,–,30,almost no activity,60,–,–,–,–,–,–,–
NCl [chloramine],–,–,–,–,–,–,–,493,91,223,41.4,2,539,4
